Our source for the IC50 values is BindingDB's records for doi:10.1021/jm300317k (University of Manchester, 2012).

In general, IC50 refers to the concentration at which inhibition is half-maximal.

Some results are limits rather than exact numbers.

In this test the target is Glucose-6-phosphate 1-dehydrogenase (Homo sapiens, UniProt P11413). The experiment in a line: Inhibition of human recombinant N-terminal His tagged G6PD expressed in Escherichia coli JM109 (DE3) cells assessed as production of NADPH after 30 mins by Amplite fluorimetric assay.
Chain of Glucose-6-phosphate 1-dehydrogenase (P11413 whole entry): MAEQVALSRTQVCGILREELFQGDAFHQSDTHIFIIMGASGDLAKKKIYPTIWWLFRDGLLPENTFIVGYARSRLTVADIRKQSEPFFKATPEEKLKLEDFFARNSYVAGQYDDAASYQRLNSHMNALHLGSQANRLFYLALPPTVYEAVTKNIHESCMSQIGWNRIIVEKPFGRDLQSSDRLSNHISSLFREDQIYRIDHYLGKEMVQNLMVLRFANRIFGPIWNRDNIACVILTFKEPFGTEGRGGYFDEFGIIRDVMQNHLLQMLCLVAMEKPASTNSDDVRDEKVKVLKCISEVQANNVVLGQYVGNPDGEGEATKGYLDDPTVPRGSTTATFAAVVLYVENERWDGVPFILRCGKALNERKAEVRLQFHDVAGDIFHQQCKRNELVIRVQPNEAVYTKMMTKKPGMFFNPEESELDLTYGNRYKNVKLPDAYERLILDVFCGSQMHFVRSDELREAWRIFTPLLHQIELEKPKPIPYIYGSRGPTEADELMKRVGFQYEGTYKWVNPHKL

As to `C[C@]12CC[C@H](O)C[C@@H]1CC[C@@H]1[C@@H]2CC[C@]2(C)C(N=O)CC[C@@H]12` (some centres not stated), the IC50 is greater than 200 µM.

Take `CC(N=O)[C@H]1CC[C@H]2[C@@H]3CC[C@H]4C[C@@H](O)CC[C@]4(C)[C@H]3CC[C@]12C` (some centres not stated): the IC50 was greater than 200 µM.
